From patent publication US11596716B2, “Compounds and matrices for use in bone growth and repair” (Human BioMolecular Research Institute, priority 2013, dated 2023) come the findings set out here.

Where two headings read alike, the source gives them in different places.

Series [1] has as its system C2C12 cells. The series is described as follows: qPCR detection of osteogenic markers in C2C12 cells. Type of series: cell-based, Mouse. Conditions: 500 nM, 6 days. A general note: In qPCR the cycle at which signal appears reflects the starting amount.
Series [2] concerns C2C12 cells. Kind of series: Alizarin Red S staining (calcium deposition) in C2C12 cells. Type of series: cell-based, Mouse. Conditions: 500 nM, 25 days of treatment. The procedure: Alizarin Red S Staining: C2C12 cells were cultured as described for the ALP functional activity assay (above, except compound was added every 48 hr for 25 days), but using 48-well plate format. On day 25, medium was removed and the cells were washed with PBS (calcium and magnesium free). Cells were fixed with 70% ethanol at room temperature for 30 mins, rinsed with water 3×. Following removal of water, 200 μl of Alizarin Red S (2%, pH 4.1) was added to each well and incubated for at least 20 mins. The dye was removed and the cells were washed with excess H2O four times with gentle mixing. The cells were covered with water to prevent evaporation and analyzed by plate reader or microscope. This protocol was applied to hMSC and E15 cells.

Series [3] relates to hMSCs. Kind of series: qPCR of apoptosis biomarkers (Bax and Fos) in hMSCs. The series is classed as cell-based, human. Conditions: for gene expression of apoptosis biomarkers (Bax and Fos): 500 nM to 5 μM, up to 25 days; for cytotoxicity as determined by quantification of apoptosis: hMSCs.
Series [4] relates to hMSCs. The series is described as follows: Alamar blue cell viability assay in hMSCs. The series is classed as cell-based, human. The conditions noted are these: 500 nM, 25-day-old hMSCs. The procedure:
(§1) Cell proliferation/viability assay: Cells were seeded at a density of 500 cells/well on 96-well plates. After 24 hr, compound (i.e., 5 nM, 50 nM, 500 nM or 5000 nM) was added to the cells in the presence or absence of calcium phosphate matrix (5 mg/mL). One-half of the media was replaced with fresh media containing compound every 48 hours for 8 days. At the specified time, 1 μg of Resazurin was added to each well of the 96-well plate and the fluorescence signal at 590 nm (excitation at 530 nm) was immediately measured. Readings were designated as time zero values (value0h). Cells were incubated for 1 hr before a second fluorescence measurement at 590 nm was made (value1h). The difference in 1 hr and 0 h (value1h−value0h) readings were used to plot the fold-change in cell proliferation/viability after normalizing to control conditions (i.e., DMSO vehicle treatment). Compounds of Formula II or IV that activate Wnt signaling and compounds of Formula VI that activate TLR signaling pathways were analyzed. This protocol was applied to hMSC and E15 cells as well. Cell proliferation was not robust in keeping with a narrow number of cells highly committed to the bone cell lineage.
The assay for cell proliferation followed the same procedure with hMSCs as described for C2C12 cells (Example 7).

Series [5] concerns C2C12 cells. The series is described as follows: qPCR of apoptosis biomarkers (Bax and Fos) in C2C12 cells. The conditions noted are these: 500 nM or 5 μM every 48 hrs, up to 25 days. Type of series: cell-based, Mouse.
The subject of series [6] is C2C12 cells. The series is described as follows: Cell proliferation/viability assay (Resazurin / Alamar blue) in C2C12 cells. The series is classed as cell-based, Mouse. The conditions noted are these: for cell viability (Alamar blue): 500 nM every 48 hrs for 25 days. The procedure: as §1, with “One-half of the media was replaced with fresh media containing compound every 48 hours for 8 days.” left out
Background: Resazurin is reduced to fluorescent resorufin, in cell work by metabolically active cells.

Series [7] relates to hMSCs. Kind of series: Alkaline Phosphatase functional activity assay in hMSCs. Type of series: cell-based, human. Further details: key to Alkaline Phosphatase activity, −matrix, 8 days / Alkaline Phosphatase activity, +matrix, 8 days / Alkaline Phosphatase activity, −matrix, 25 days / Alkaline Phosphatase activity, +matrix, 25 days: fold-change vs DMSO-treated control (control = 1). Conditions: for ALP functional activity, compound and matrix versus compound alone or matrix alone / Alkaline Phosphatase activity, +matrix, 8 days / Alkaline Phosphatase activity, +matrix, 25 days / Alkaline Phosphatase activity, −matrix, 25 days / Alkaline Phosphatase activity, −matrix, 8 days: 500 nM; for ALP functional activity, compound and matrix versus compound alone or matrix alone: 8 and 25 day incubations, matrix 5 mg/mL (FIG. 3); for Alkaline Phosphatase activity, +matrix, 8 days / Alkaline Phosphatase activity, +matrix, 25 days: matrix 5 mg/mL; for Alkaline Phosphatase activity, +matrix, 8 days / Alkaline Phosphatase activity, +matrix, 25 days / Alkaline Phosphatase activity, −matrix, 25 days / Alkaline Phosphatase activity, −matrix, 8 days: mean +/− SD (n = 3); for Alkaline Phosphatase activity, −matrix, 8 days: fold; for EC50: dose-dependent induction in hMSCs, read-out: EC50 of induction of ALP activity.

Series [8] has as its system C2C12 cells. Kind of series: Alkaline Phosphatase (ALP) functional activity assay in C2C12 cells. The series is classed as cell-based, Mouse. The conditions noted are these: 500 nM; for ALP activity, combination of compound and matrix compared to compound alone or matrix alone: 6 day incubation, tricalcium phosphate ceramic matrix 5 mg/mL (FIG. 2); for ALP activity fold-changes +/− SD, +matrix / ALP activity fold-changes +/− SD, −matrix: 6 days of culture; for ALP activity fold-changes +/− SD, +matrix: calcium phosphate ceramic 5 mg/mL; for ALP activity fold-changes +/− SD, −matrix: absence of matrix, versus untreated (DMSO) cells. Put shortly: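 ALP functional activity in mouse C2C12 cells: following 6 days of culture with compound (500 nM, 0.1% DMSO), lysates prepared in buffer of 10 mM Tris-HCl pH 8.0, 1 mM MgCl2, 1% Triton X100 were centrifuged, incubated with pNPP (2 mg/mL) for 10 mins at 37° C., stopped with NaOH, and read at 405 nm; Bradford protein normalization and fold-change versus DMSO followed.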

For the compound `CC(=O)N1c2ccc(C)cc2[C@H](Nc2ccc(C)cc2)C[C@@H]1C` (relative stereo) [Compound 1, cis-1-acetyl-2,6-dimethyl-N-(p-methylphenyl)-1,2,3,4-tetrahydroquinolin-4-amine], in series [1], the “ID3 mRNA expression, absence of matrix” value was determined as 1.8 fold and the “ID3 mRNA expression, presence of matrix” value is reported as 5.0 fold. In addition, in series [2], the “calcium deposition, absence of matrix” value is listed as 1.6 fold and the “calcium deposition, presence of matrix” value amounted to 2.5 fold. In series [3], the “gene expression of apoptosis biomarkers (Bax and Fos)” value (shortened to “gene expression”) is given as “unable to detect gene expression of typical apoptosis biomarkers”; the “cytotoxicity as determined by quantification of apoptosis” value (“cytotoxicity as determined” below) is listed as “no cytotoxicity”. In series [4], the “cell viability (Alamar blue)” value was “no decrease in cell viability”. Further, in series [5], the “gene expression” value is “unable to detect gene expression of typical apoptosis biomarkers”. Besides, in series [6], the “cell viability (Alamar blue)” value is “did not show a decrease in cell viability”. In series [7], the “ALP functional activity, compound and matrix versus compound alone or matrix alone” value is on record as “exceeded the effect of compound alone or matrix alone”; the “Alkaline Phosphatase activity, +matrix, 8 days” value came out at 1.5 ± 0.1; the “Alkaline Phosphatase activity, +matrix, 25 days” value stood at 3.6 ± 0.4; the “Alkaline Phosphatase activity, −matrix, 25 days” value is recorded as 1.5 ± 0.1. Moreover, the “Alkaline Phosphatase activity, −matrix, 8 days” value in series [7] is recorded as 1.2 ± 0.1. Also, in series [7] (Homo sapiens), the EC50 turned out to be 26 nM. For the same compound, in series [8], the “ALP activity, combination of compound and matrix compared to compound alone or matrix alone” value is reported as “synergistic increase in ALP activity”; the “ALP activity fold-changes +/− SD, +matrix” value worked out at 19.4 ± 2.0 fold.

In the case of `CC(C)[C@H](N)C(=O)Oc1ccc(C=CC(=O)C=C(O)C=Cc2ccc(OC(=O)[C@@H](N)C(C)C)cc2)cc1` [Compound 3, (2S,2′S)—O,O′-(3-hydroxy-5-oxohepta-1,3,6-triene-1,7-diyl)bis(4,1-phenylene) bis(2-amino-3-methylbutanoate)], the “ID3 mRNA expression, presence of matrix” value in series [1] is “increased expression”. Also, in series [2], the “calcium deposition, absence of matrix” value is recorded as “marked calcium deposition”. Moreover, in series [3], the “gene expression” value is recorded as “unable to detect gene expression of typical apoptosis biomarkers”; the “cytotoxicity as determined” value is recorded as “no cytotoxicity”. Also, the “cell viability (Alamar blue)” value in series [4] is “no decrease in cell viability”. Besides, the “gene expression” value in series [5] is “unable to detect gene expression of typical apoptosis biomarkers”. Besides, the “increase in cell proliferation (Alamar Blue Assay)” value in series [6] (50 nM, 3 days) is given as 4 fold. Further, in series [6], the “cell viability (Alamar blue)” value was “did not show a decrease in cell viability”. Further, in series [7], the “ALP functional activity, compound and matrix versus compound alone or matrix alone” value is recorded as “exceeded the effect of compound alone or matrix alone”; the “Alkaline Phosphatase activity, +matrix, 8 days” value worked out at 1.8 ± 0.1; the “Alkaline Phosphatase activity, +matrix, 25 days” value is recorded as 2.3 ± 0.2; the “Alkaline Phosphatase activity, −matrix, 25 days” value was 1.7 ± 0.1. Moreover, in series [7], the “Alkaline Phosphatase activity, −matrix, 8 days” value was 1.5 ± 0.1 and the half-maximal effective concentration (EC50) was 140 nM. In addition, in series [8], the “ALP activity, combination of compound and matrix compared to compound alone or matrix alone” value is given as “synergistic increase in ALP activity”; the “ALP activity fold-changes +/− SD, −matrix” value was found to be 1.7 ± 0.2 fold.

Turning to `CC(C)[C@H](N)C(=O)Oc1ccc(/C=C/C(O)=C2\CCC/C(=C\c3ccc(OC(=O)[C@@H](N)C(C)C)cc3)C2=O)cc1` [Compound 4, 4-((1E,3Z)-3-(3-((E)-4-((L-valyl)oxy)benzylidene)-2-oxocyclohexylidene)-3-hydroxyprop-1-en-1-yl)phenyl L-valinate], in series [1], the “ID3 mRNA expression, presence of matrix” value is “increased expression”. Besides, the “calcium deposition, absence of matrix” value in series [2] is “marked calcium deposition”. Further, in series [3], the “gene expression” value is listed as “unable to detect gene expression of typical apoptosis biomarkers”; the “cytotoxicity as determined” value was “no cytotoxicity”. In addition, the “cell viability (Alamar blue)” value in series [4] was “no decrease in cell viability”. Also, the “gene expression” value in series [5] is given as “unable to detect gene expression of typical apoptosis biomarkers”. Further, the “cell viability (Alamar blue)” value in series [6] is “did not show a decrease in cell viability”. For the same compound, in series [7], the “ALP functional activity, compound and matrix versus compound alone or matrix alone” value is listed as “exceeded the effect of compound alone or matrix alone”; the “Alkaline Phosphatase activity, +matrix, 8 days” value is listed as 2.7 ± 0.2; the “Alkaline Phosphatase activity, +matrix, 25 days” value stood at 4.0 ± 0.4; the “Alkaline Phosphatase activity, −matrix, 25 days” value is 1.8 ± 0.2. Also, the “Alkaline Phosphatase activity, −matrix, 8 days” value in series [7] is given as 1.5 ± 0.1. Also, in series [7] (Homo sapiens), the EC50 turned out to be 130 nM. In addition, in series [8], the “ALP activity, combination of compound and matrix compared to compound alone or matrix alone” value is reported as “synergistic increase in ALP activity”; the “ALP activity fold-changes +/− SD, −matrix” value is reported as 1.7 ± 0.2 fold; the “ALP activity fold-changes +/− SD, +matrix” value is on record as 2.6 ± 0.3 fold.

Broadly, the EC50 is the concentration that produces a half-maximal response.
